Data reported in patent US4094980A, “N-[1-(3',4'-methylenedioxy-phenyl)-propyl-(2)]-N'-phenyl-piperazines and salts thereof” (Boehringer Ingelheim GmbH, priority 1974, dated 1978).

Legend:
[1] = tested on: adult laboratory mice of the NMRI-strain; assay: CNS-Depression: Ataxia (atactic walking); format: in vivo; conditions: po, mouse; dose at which ataxia occurs in 50% of the animals; Probit-method
Method: A statistically significant number of adult laboratory mice of the NMRI-strain are used as the test animals. The test compound is administered perorally as a suspension in tylose by means of an esophageal sound, and the treated animal is observed for evidence of atactic (uncoordinated) walking. The test is repeated at varying dosage levels, and a median effective dose (ED50) is determined by the Probit-method, i.e. the dose at which ataxia occurs in 50% of the animals.

total serum cholesterol = assay: Reduction of serum cholesterol level (total serum cholesterol, Liebermann-Burchard auto-analyzer); format: in vivo, male laboratory rats; conditions: rat
Method: 1. Reduction of serum cholesterol level
85 male laboratory rats having a body weight of about 250 gm. The animals were individually kept in Makrolon-cages under controlled conditions. Food and water were freely accessible to the animals at all times, except on the day on which the blood samples were taken.
The test compounds were administered once daily per os by means of an esophageal sound.
Determination of total cholesterol in serum (mgm/100 ml) with the auto-analyzer according to Liebermann-Burchard (see J. Levine et al, Technicon-Symposium, 1967, Vol. 1, pg. 25).
The total serum cholesterol was determined in all test animals prior to the beginning of the test (day O), as well as on the 8th, 14th and 21st day. The blood sample was taken from the retrobulbar venous plexus. The animals were fasted for about 16 hours prior to determination of the serum cholesterol.

[2] = tested on: adult laboratory mice of the NMRI-strain; assay: CNS-Depression: Sliding test (loss of holding reflex on inclined glass plate); format: in vivo; conditions: po, mouse; dose at which 50% of animals begin to slide off the glass plate; Probit-method
Method: A statistically significant number of adult laboratory mice of the NMRI-strain are used as test animals. The test compound is administered perorally as a suspension in tylose by means of an esophageal sound, and the animal is placed on an inclined plate of glass. If the administered dose of the test compound has a CHS-depressing effect upon the animal, the treated mouse loses its normal holding reflex and slides off the plate. The test is repeated at varying dosage levels, and a median effective dose (ED50) is determined by the so-called Probit-method, i.e. the dose at which 50% of the test animals begin to slide off the glass plate.

[3] = day 0 (prior to the beginning of the test, baseline), group of 25 mgm/kg once daily per os
[4] = day 8, 25 mgm/kg once daily per os
[5] = day 14, 25 mgm/kg once daily per os
[6] = day 21, 25 mgm/kg once daily per os
[7] = day 0 (prior to the beginning of the test, baseline), group of 50 mgm/kg once daily per os
[8] = day 8, 50 mgm/kg once daily per os
[9] = day 14, 50 mgm/kg once daily per os
[10] = day 21, 50 mgm/kg once daily per os

| Compound | ED50 [1] | Average value of total serum cholesterol (total serum cholesterol; [3]) | Average value of total serum cholesterol (total serum cholesterol; [4]) | Average value of total serum cholesterol (total serum cholesterol; [5]) | Average value of total serum cholesterol (total serum cholesterol; [6]) | ED50 [2] | Average value of total serum cholesterol (total serum cholesterol; [7]) | Average value of total serum cholesterol (total serum cholesterol; [8]) | Average value of total serum cholesterol (total serum cholesterol; [9]) | Average value of total serum cholesterol (total serum cholesterol; [10]) |
| --- | --- | --- | --- | --- | --- | --- | --- | --- | --- | --- |
| CC(Cc1ccc2c(c1)OCO2)N1CCN(c2ccc(Cl)cc2Cl)CC1 (stereo not drawn) [A, n-[1-(3,4-methylenedioxy-phenyl)-propyl-(2)]-N'-(2,4-dichloro-phenyl)-piperazine] | 160 mg/kg | 96.7 mgm/100 ml | 27.5 mgm/100 ml | 12.5 mgm/100 ml | 13.0 mgm/100 ml | 190 mg/kg |  |  |  |  |
| COc1ccc(N2CCN(C(C)Cc3ccc4c(c3)OCO4)CC2)c(C)c1 (stereo not drawn) [B, n-[1-(3,4-methylenedioxy-phenyl)-propyl(2)]-N'-(2-methyl-4-methoxy-phenyl)-piperazine] | 120 mg/kg | 97.9 mgm/100 ml | 35.2 mgm/100 ml | 21.3 mgm/100 ml | 21.2 mgm/100 ml | 960 mg/kg |  |  |  |  |
| CC(Cc1ccc2c(c1)OCO2)N1CCN(c2ccccc2Cl)CC1 (stereo not drawn) [Compound C, n-[1-(3,4-methylenedioxy-phenyl)-propyl(2)]-N'-(2-chlorophenyl)-piperazine] | 2.2 mg/kg | 38.3 mgm/100 ml | 31.7 mgm/100 ml | 24.3 mgm/100 ml | 26.2 mgm/100 ml | 2.2 mg/kg |  |  |  |  |
| COc1ccccc1N1CCN(C(C)Cc2ccc3c(c2)OCO3)CC1 (stereo not drawn) [Compound D] | 39 mg/kg |  |  |  |  | > 14 mg/kg | 112.9 mgm/100 ml | 87.3 mgm/100 ml | 86.3 mgm/100 ml | 82.1 mgm/100 ml |
| Cc1cccc(C)c1N1CCN(C(C)Cc2ccc3c(c2)OCO3)CC1 (stereo not drawn) [E, n-[1-(3,4-methylenedioxy-phenyl)-propyl(2)]-N'-(2,6-dimethyl-phenyl)-piperazine] | 105 mg/kg |  |  |  |  | 25 mg/kg | 107.3 mgm/100 ml | 71.2 mgm/100 ml | 61.7 mgm/100 ml | 63.5 mgm/100 ml |
